PMC4489529 (Antiviral chemistry & chemotherapy, 2014)
Read-outs that look alike come from different tables or passages of the source.

What was measured:
[1] = pH 7.4, reported for the parent compound; cited from earlier work
in vitro = conditions: human, Caco-2, pH 7.4
Caco-2 cells [2] = test system: Caco-2 cells
[3] = buffer
U373-MAGI-CXCR4CEM cells = conditions: at 5 μM, data not shown
Caco-2 cells [4] = assay: Caco-2 assay to assess permeability; conditions: divalerate prodrug versus parent drug

| SMILES | Half-life at pH 7.4 [1] [h] | recovery at 60 min, 10 μM (in vitro) [%] | Permeability (Caco-2 cells [2]; Caco-2) [cm/s] | Permeability of prodrug relative to parent compound (Caco-2 cells [2]; Caco-2) | Permeability (Caco-2 cells [2]; Caco-2, pH 7.4) | Half-life at pH 2.0 [3] [h] | Half-life at pH 4.65 [3] [h] | Half-life at pH 7.4 [3] [h] | Decrease in cell proliferation (U373-MAGI-CXCR4CEM cells) | Permeability of prodrug relative to parent compound (Caco-2 cells [4]) [fold] |
| --- | --- | --- | --- | --- | --- | --- | --- | --- | --- | --- |
| Nc1ncn([C@H]2C[C@H](O)[C@@H](CO)O2)c(=O)n1 [Decitabine, 5-aza-2′-deoxycytidine] | 12.9 ±0.9 | 91 |  |  |  |  |  |  |  |  |
| CCCCC(=O)OC[C@H]1O[C@@H](n2cnc(N)nc2=O)C[C@@H]1OC(=O)CCCC [Decitabine divalerate, decitabine divalerate] |  |  | 3.2e-06 | fourfold higher | 3.2 10^−6 cm/s | 17 | 36 | 28 | less than 5% |  |
| Nc1ccn([C@@H]2O[C@H](CO)[C@@H](O)C2(F)F)c(=O)n1 [Gemcitabine, 2′,2′-difluoro-2′-deoxycytidine] |  | 111 |  |  |  |  |  |  |  |  |
| CCCCC(=O)OC[C@H]1O[C@@H](n2ccc(N)nc2=O)C(F)(F)[C@@H]1OC(=O)CCCC [Gemcitabine divalerate, gemcitabine divalerate] |  |  | 2.1e-06 |  | 2.1 10^−6 cm/s | 85 | 247 | 135 |  | 4.2 |
